In article PMC11996873, “Asparagine drives immune evasion in bladder cancer via RIG-I stability and type I IFN signaling” (The Journal of Clinical Investigation, 2025):

Molecular target: T1, RIG-I (Homo sapiens, UniProt O95786)
T1 construct: gene RIGI
T1 sequence (O95786 1-925): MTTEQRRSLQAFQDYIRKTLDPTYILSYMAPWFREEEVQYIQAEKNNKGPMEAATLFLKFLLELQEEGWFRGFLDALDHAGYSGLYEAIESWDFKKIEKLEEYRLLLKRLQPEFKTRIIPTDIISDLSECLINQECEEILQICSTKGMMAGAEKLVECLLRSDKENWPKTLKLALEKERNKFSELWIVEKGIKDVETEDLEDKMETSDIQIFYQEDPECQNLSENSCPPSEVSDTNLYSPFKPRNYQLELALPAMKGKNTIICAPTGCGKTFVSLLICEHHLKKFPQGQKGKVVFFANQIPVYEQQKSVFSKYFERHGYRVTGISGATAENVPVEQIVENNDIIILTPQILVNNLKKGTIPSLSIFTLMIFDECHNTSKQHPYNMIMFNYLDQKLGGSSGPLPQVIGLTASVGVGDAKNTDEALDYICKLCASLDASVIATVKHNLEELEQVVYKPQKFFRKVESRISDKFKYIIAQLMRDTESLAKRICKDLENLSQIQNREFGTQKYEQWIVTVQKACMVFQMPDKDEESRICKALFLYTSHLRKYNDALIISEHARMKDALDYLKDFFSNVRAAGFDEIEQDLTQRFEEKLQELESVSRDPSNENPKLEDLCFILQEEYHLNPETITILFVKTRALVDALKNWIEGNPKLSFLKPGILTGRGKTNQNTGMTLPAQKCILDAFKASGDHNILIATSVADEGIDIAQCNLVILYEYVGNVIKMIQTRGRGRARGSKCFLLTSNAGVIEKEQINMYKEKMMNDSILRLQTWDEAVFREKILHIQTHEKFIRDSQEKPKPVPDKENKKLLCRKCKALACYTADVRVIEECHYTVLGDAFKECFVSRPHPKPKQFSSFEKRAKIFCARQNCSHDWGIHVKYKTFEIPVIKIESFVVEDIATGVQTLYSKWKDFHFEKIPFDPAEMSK
Assay: microscale thermophoresis (Monolith NT.[…])
Type: binding

## NC(=O)C[C@H](N)C(=O)O [asparagine]
  Kd: 303 µM
